According to PMC10540216, “Activity Guided Azide-methyllysine Photo-trapping for Substrate Profiling of Lysine Demethylases” (Journal of the American Chemical Society, 2023):
Entries after “also recorded” stand apart in the source; their conditions may differ. Where no end group is shown, it is not given here. [ ]: non-standard residue; d: D form. Lys(Me3) = C[N+](C)(C)CCCC[C@H](N)C(=O)O

Each substance was assayed on KDM4A-E (assay: Demethylase activity of KDM4 subfamily on peptide substrates (MALDI-TOF MS), result worded for KDM4A-E together). Settings: wild-type KDM4A-E, 10 µM enzyme, 10 µM peptide, 1 mM 2OG, 50 mM Tris pH 8, 37°C, three hours.
Type: biochemical, human

Row | Substance | demethylation by KDM4A-E
1 | FNRMPIAR[Lys(Me3)]IIKDGEQH [compound 8, AIFM1-K590me3 peptide] | failed to undergo demethylation; also recorded: not recognized as KDM4 substrates
2 | MPSASASR[Lys(Me3)]SQEKPREI [compound 14, SYDC-K9me3 peptide] | not recognized as KDM4 substrates
3 | ALMLENLQ[Lys(Me3)]HSTPHAAF [compound 9, ACINUS-K113me3 peptide] | failed to undergo demethylation by KDM4A-E
4 | WENTLHTL[Lys(Me3)]QRQLTSYV [compound 17, NUP107-K305me3 peptide] | failed to undergo demethylation by KDM4A-E
5 | RSASSNSR[Lys(Me3)]SLSPGVSR [compound 10, Acinus-K654me3 peptide] | demethylated by multiple KDM4s; also recorded: robust demethylation
6 | GGATSSAR[Lys(Me3)]NRWDEPTK [compound 12, SF3B1-K290me3 peptide] | failed to undergo demethylation; also recorded: not recognized as KDM4 substrates
7 | AEVTRTAR[Lys(Me3)]QSAQKRVL [compound 16, Nup107-K25me3 peptide] | demethylated by multiple KDM4s; also recorded: robust demethylation
8 | SRAHSSHLKme3SKKGQSTS [compound 18, P53-K370me3 peptide] | failed to undergo demethylation by KDM4A-E
9 | KGPDEAKI[Lys(Me3)]ALLERTGY [compound 11, hnRNPQ-K125me3 peptide] | failed to undergo demethylation by KDM4A-E; also recorded: not recognized as KDM4 substrates

These substances were tested on KDM4A-I71AzF (assay: CASI: photo-crosslinking with HEK293T cell extracts, StrepTactin enrichment and LC-MS/MS proteomics). Settings: sheet "Final results but with 0.01".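 Note: lysates from HEK293T cells pretreated with a KDM4 inhibitor to raise proteome methylation, affinity-purified after ±UV, gel-resolved, trypsin-digested, with exclusive unique peptides per protein averaged per condition.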
Type: binding, human

Row | Substance | Fold change (+UV/-UV)
10 | HNRPU_HUMAN | 0.6
11 | PTBP1_HUMAN | 1.2
12 | U520_HUMAN | 0.6129
13 | MPRI_HUMAN | 0
14 | HS90B_HUMAN | 0.75
15 | HORN_HUMAN | 0
16 | KCRU_HUMAN | 200
17 | MAOM_HUMAN | 1.714
18 | MCM7_HUMAN | 0.3333
19 | SPTN1_HUMAN | 0
20 | FAS_HUMAN | 0.3889
21 | GRP78_HUMAN | 0.5556
22 | TCPZ_HUMAN | 1
23 | ESYT1_HUMAN | 1
24 | SP16H_HUMAN | 0.2857
25 | HSP7C_HUMAN | 0.7407
26 | COR1C_HUMAN | 0
27 | PRP8_HUMAN | 0.32
28 | FTO_HUMAN | 1
29 | YLPM1_HUMAN | 0.6923
30 | MSH6_HUMAN | 0.5
31 | TERA_HUMAN | 1.125

Row | Substance | Fold change (+UV/-UV)
32 | BRE1B_HUMAN | 0.25
33 | MYH9_HUMAN | 0
34 | HNRPK_HUMAN | 1.273
35 | LAMP2_HUMAN | 2
36 | CMC2_HUMAN | 0.5
37 | CLPX_HUMAN | 1.5
38 | SYEP_HUMAN | 0.6667
39 | CLH1_HUMAN | 1
40 | KPYM_HUMAN | 1.667
41 | IF4G1_HUMAN | 0
42 | SCRIB_HUMAN | 3
43 | ZO1_HUMAN | 1
44 | KRT82_HUMAN | 200
45 | DESP_HUMAN | 0.2222
46 | G3BP1_HUMAN | 0
47 | RU17_HUMAN | 1
48 | TCPA_HUMAN | 2
49 | UGGG1_HUMAN | 1
50 | DOCK7_HUMAN | 0.8
51 | PABP1_HUMAN | 0.8571
52 | SMCA5_HUMAN | 0
53 | XRCC5_HUMAN | 0.5

Row | Substance | Fold change (+UV/-UV)
54 | CCAR2_HUMAN | 0.75
55 | GUAA_HUMAN | 0.6364
56 | DHSA_HUMAN | 1
57 | GRP75_HUMAN | 0.7931
58 | PRKDC_HUMAN | 0.5
59 | TCPG_HUMAN | 4
60 | NU205_HUMAN | 0.6667
61 | DHX9_HUMAN | 0.7895
62 | DHE3_HUMAN | 1.727
63 | ECHA_HUMAN | 1
64 | TCPE_HUMAN | 0.3333
65 | K2C4_HUMAN | 10
66 | FILA2_HUMAN | 0.75
67 | DNMT1_HUMAN | 0
68 | IF4A1_HUMAN | 200
69 | ZN207_HUMAN | 1
70 | TBA1B_HUMAN | 0.8182
71 | RBM25_HUMAN | 0
72 | FLNA_HUMAN | 0.3571
73 | CHD4_HUMAN | 0.3333
74 | RIF1_HUMAN | 1
75 | VIME_HUMAN | 0.875

Row | Substance | Fold change (+UV/-UV)
76 | RBP56_HUMAN | 1
77 | U5S1_HUMAN | 0.6
78 | H12_HUMAN | 700
79 | ENPL_HUMAN | 1.25
80 | HSP71_HUMAN | 0.6154
81 | XRCC6_HUMAN | 0.3333
82 | NU214_HUMAN | 2
83 | SSRP1_HUMAN | 0
84 | G3P_HUMAN | 0.5
85 | BRE1A_HUMAN | 0.1667
86 | PO210_HUMAN | 0.1538
87 | TPR_HUMAN | 0.6212
88 | TLN1_HUMAN | 0
89 | NUMA1_HUMAN | 0
90 | HEAT1_HUMAN | 0
91 | RRP5_HUMAN | 0
92 | PYR1_HUMAN | 0.125
93 | I2BP2_HUMAN | 0.3333
94 | ATPB_HUMAN | 0.5789
95 | SYNM_HUMAN | 1
96 | TCPH_HUMAN | 1.333
97 | INT3_HUMAN | 2
